US20250064945A1 (Arvinas Operations, Inc., priority 2021, published 2025)

Target: T1, BRM (Homo sapiens, UniProt P51531)
T1 construct: In-Cell Western Screen of BRM Degradation in SW1573 Cells; endogenous in cells; host or cells: SW1573 cells
Assay: Western blot / In-Cell Western screen of BRM degradation in SW1573 cells
Type: cell-based
Conditions: overnight (18-20 hours) treatment; for Dmax: read-out: Dmax (%) (% degraded)
Method: Western Blot Screen of BRM Degradation in SW1573 Cells
(§1) To assess BRM degradation (Dmax and DC50) cells were seeded at 8000/well in 96-well black/clear-bottom plates in 180 μL DMEM growth media (containing 1% pen-strep, 1% HEPES and 10% FBS) per well. Plates were incubated overnight to allow adhesion. The next morning cells were treated by adding 20 μL of 10× target compound concentration (1% DMSO) to appropriate wells and returned to incubator for overnight (18-20 hours). The final DMSO concentration was 0.1%.
For lysing, adherent cells were washed once with 100 μL of DPBS. Cells were lysed in 40 μL of 1× RIPA+HALT protease inhibitor on ice for 10 minutes and frozen until use at −80° C. Thawed lysates were cleaned by filtration in 1.2 µm filter plates, or alternatively, were spun clean at 2300 g at 4° C. for 30 minutes.
For blotting, for each Western sample 30 μL of lysate was added to 10 μL of 4×LDS sample buffer, then denatured at 95° C. for 5 minutes in the thermal cycler and placed on ice. Samples were loaded on 4-15% Tris/Glycine gels and run for 25 minutes at 250 constant volts in 1×Tris/Glycine buffer with 4 μL of ladder and 12 μL of each sample loaded for each blot. Protein was transferred from gels to NC with BioRad Turbo dry-transfer unit with the Turbo/midi default program. All blots were rinsed with ddH2O and blocked for 1 hour at room temperature in 5% BSA in TBST (0.1%) on rocker. Blots were exposed to primary antibody in 5% BSA in TBST (0.1%) overnight at 4° C. on rocker (1:1000 for BRM (Cell Signaling Tech. cat #11966) and 1:2000 for alpha-tubulin (Cell Signaling Tech. cat #3873), a control protein. Blot was washed with TBST (0.1%) three times for 5 minutes on rocker at room temperature. Secondary antibody was added, and blots were incubated on a room temperature rocker for 1 hour with 1:18,000 anti-rabbit-HRP and/or anti-mouse-HRP in 5% BSA in TBST (0.1%). Blots were washed three times in TBST (0.1%) for 5 minutes at room temperature on the rocker. Signal was developed with Femto Maximum Sensitivity substrate for 4 minutes and blots read on ChemiDoc™.
In-Cell Western Screen of BRM Degradation in SW1573 Cells
as §1, with “DC50),” for “DC50)”, “10×” for “10× target”, “compound” for “compound concentration”
For processing, the plates were removed from incubator, the media was removed, and immediately 200 μL of cold (4° C.) DPBS was added to all wells. DPBS was then removed, and 50 μL of 4% paraformaldehyde (PFA) in DPBS (4° C.) was added to all wells, and the plates were incubated at room temperature for 20 minutes. PFA was then removed, and 200 μL of TBS-T containing 0.5% Triton X-100 was added to all wells, and the plates were incubated at room temperature for 30 minutes. TBS-T containing 0.5% Triton X-100 was then removed, and 50 μL of Li-Cor blocking solution was added, and the plates were incubated at room temperature for a minimum of one hour. The blocking solution was removed, and 50 μL of Li-Cor blocking solution containing primary antibody cocktail was added (1:1000 for BRM (Cell Signaling Tech. cat #11966) and 1:2000 for alpha-tubulin (Sigma cat #T6074), a control protein. Plates were then placed in cold room until the next day.
The next day plates were washed three times with TBS-T, 200 μL per well. Fifty […] of secondary antibody cocktail in LI-COR blocking solution (anti-rabbit_800 nm and anti-mouse_680 nm) was added to all wells (diluted 1:5000). The plates were incubated at room temperature for at least one hour while protected from light. The plates were washed twice with TBS-T, 200 μL per well. […]

T1 sequence (P51531 whole entry): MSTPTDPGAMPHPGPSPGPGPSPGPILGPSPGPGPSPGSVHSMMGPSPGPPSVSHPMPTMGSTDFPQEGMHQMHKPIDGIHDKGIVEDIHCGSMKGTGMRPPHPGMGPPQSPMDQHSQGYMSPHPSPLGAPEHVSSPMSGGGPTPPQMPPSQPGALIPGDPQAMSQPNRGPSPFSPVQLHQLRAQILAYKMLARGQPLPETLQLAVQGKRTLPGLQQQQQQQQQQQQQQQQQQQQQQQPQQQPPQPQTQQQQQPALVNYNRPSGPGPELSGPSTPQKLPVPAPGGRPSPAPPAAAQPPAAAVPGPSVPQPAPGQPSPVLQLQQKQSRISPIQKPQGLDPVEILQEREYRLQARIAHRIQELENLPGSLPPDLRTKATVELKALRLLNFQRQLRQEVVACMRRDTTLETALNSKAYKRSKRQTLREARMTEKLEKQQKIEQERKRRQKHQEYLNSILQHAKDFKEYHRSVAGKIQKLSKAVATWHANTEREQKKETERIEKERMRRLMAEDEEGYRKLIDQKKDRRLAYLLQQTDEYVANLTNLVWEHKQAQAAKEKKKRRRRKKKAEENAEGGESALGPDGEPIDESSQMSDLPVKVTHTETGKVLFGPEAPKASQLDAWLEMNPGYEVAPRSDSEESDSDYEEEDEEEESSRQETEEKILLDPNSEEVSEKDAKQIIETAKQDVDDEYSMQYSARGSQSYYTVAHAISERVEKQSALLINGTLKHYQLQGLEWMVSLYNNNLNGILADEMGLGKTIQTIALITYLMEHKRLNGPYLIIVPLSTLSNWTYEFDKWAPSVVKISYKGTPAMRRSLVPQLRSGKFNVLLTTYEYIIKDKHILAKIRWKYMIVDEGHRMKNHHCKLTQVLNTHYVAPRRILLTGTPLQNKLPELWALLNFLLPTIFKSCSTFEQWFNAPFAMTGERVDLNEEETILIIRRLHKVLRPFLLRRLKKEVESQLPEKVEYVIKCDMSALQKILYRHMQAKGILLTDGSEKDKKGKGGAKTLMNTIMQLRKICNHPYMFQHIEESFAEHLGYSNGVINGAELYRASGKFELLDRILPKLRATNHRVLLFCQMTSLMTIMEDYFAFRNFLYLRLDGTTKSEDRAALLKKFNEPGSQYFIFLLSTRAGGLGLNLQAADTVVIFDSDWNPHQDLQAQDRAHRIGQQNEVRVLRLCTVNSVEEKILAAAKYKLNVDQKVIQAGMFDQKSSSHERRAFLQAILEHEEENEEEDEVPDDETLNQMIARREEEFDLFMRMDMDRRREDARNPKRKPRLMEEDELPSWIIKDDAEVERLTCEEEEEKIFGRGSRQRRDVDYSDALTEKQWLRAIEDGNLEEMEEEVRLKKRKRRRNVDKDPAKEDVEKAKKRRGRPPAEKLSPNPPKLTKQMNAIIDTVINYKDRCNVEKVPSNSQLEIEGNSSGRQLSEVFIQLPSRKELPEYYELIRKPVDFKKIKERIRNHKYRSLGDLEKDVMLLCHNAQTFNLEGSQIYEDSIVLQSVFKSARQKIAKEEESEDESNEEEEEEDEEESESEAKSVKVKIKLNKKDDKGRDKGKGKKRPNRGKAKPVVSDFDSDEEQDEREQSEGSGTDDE

With `CC(C)[C@@H](C(=O)N1C[C@H](O)C[C@H]1C(=O)N[C@@H](C)c1ccc(-c2ccnn2C)cc1)c1cc(N2CCC(CN3CCC(O[C@H]4C[C@H](OC/C=C/c5cn6cc(-c7ccccc7O)nc6nc5N)C4)CC3)CC2)no1` [Compound 45, (2S,4R)-4-hydroxy-N-[(1S)-1-[4-(1-methyl-1H-pyrazol-5-yl)phenyl]ethyl]-1-[(2R)-3-methyl-2-{3-[4-({4-[(1r,3r)-3-{[(2E)-3-[7-amino-2-(2-hydroxyphenyl)imidazo[1,2-a]pyrimidin-6-yl]prop-2-en-1-yl]oxy}cyclobutoxy]piperidin-1-yl}methyl)piperidin-1-yl]-1,2-oxazol-5-yl}butanoyl]pyrrolidine-2-carboxamide] as the compound, how does the DC50 read?
The DC50 was under 2.5 nM.

And the Dmax?
The Dmax was over 75%.

`Cc1ncsc1-c1ccc([C@H](C)NC(=O)[C@@H]2C[C@@H](O)CN2C(=O)[C@@H](c2cc(N3CCC(CN4CCC5(CC4)CC(N4CCO[C@@H](CN6CCOC7(CCCN(c8cc(-c9ccccc9O)nnc8N)C7)C6)C4)C5)CC3)no2)C(C)C)cc1` (stereo partly drawn) [Compound 22, (2S,4R)-1-[(2R)-2-{3-[4-({2-[(2S)-2-({8-[3-amino-6-(2-hydroxyphenyl)pyridazin-4-yl]-1-oxa-4,8-diazaspiro[5.5]undecan-4-yl}methyl)morpholin-4-yl]-7-azaspiro[3.5]nonan-7-yl}methyl)piperidin-1-yl]-1,2-oxazol-5-yl}-3-methylbutanoyl]-4-hydroxy-N-[(1S)-1-[4-(4-methyl-1,3-thiazol-5-yl)phenyl]ethyl]pyrrolidine-2-carboxamide] was tested. Which DC50 did it give?
Its DC50 is under 2.5 nM.

What about the Dmax of the same compound?
The Dmax was over 75%.

With `Cc1ncsc1-c1ccc([C@H](C)NC(=O)[C@@H]2C[C@@H](O)CN2C(=O)[C@@H](c2cc(N3CCC(CN4CCC(O[C@H]5C[C@H](n6cnc(CN7C8CCC7CN(c7cc(-c9ccccc9O)nnc7N)C8)c6)C5)CC4)CC3)no2)C(C)C)cc1` [Compound 3, (2S,4R)-4-hydroxy-N-[(1S)-1-[4-(4-methyl-1,3-thiazol-5-yl)phenyl]ethyl]-1-[(2R)-3-methyl-2-{3-[4-({4-[(1r,3r)-3-[4-({3-[3-amino-6-(2-hydroxyphenyl)pyridazin-4-yl]-3,8-diazabicyclo[3.2.1]octan-8-yl}methyl)-1H-imidazol-1-yl]cyclobutoxy]piperidin-1-yl}methyl)piperidin-1-yl]-1,2-oxazol-5-yl}butanoyl]pyrrolidine-2-carboxamide] as the compound, how does the DC50 read?
The DC50 was under 2.5 nM.

And the Dmax?
The Dmax was over 75%.

What does the source list for `Cc1ncsc1-c1ccc([C@H](C)NC(=O)[C@@H]2C[C@@H](O)CN2C(=O)[C@@H](c2cc(N3CCC(CN4CCC(O[C@H]5C[C@H](n6cc(CN7C8CCC7CN(c7cc(-c9ccccc9O)nnc7N)C8)cn6)C5)CC4)CC3)no2)C(C)C)cc1` [Compound 12, (2S,4R)-4-hydroxy-N-[(1S)-1-[4-(4-methyl-1,3-thiazol-5-yl)phenyl]ethyl]-1-[(2R)-3-methyl-2-{3-[4-({4-[(1r,3r)-3-[4-({3-[3-amino-6-(2-hydroxyphenyl)pyridazin-4-yl]-3,8-diazabicyclo[3.2.1]octan-8-yl}methyl)-1H-pyrazol-1-yl]cyclobutoxy]piperidin-1-yl}methyl)piperidin-1-yl]-1,2-oxazol-5-yl}butanoyl]pyrrolidine-2-carboxamide]?
DC50: 2.5 to 10 nM; Dmax: > 75%

For `Cc1ncsc1-c1ccc([C@H](C)NC(=O)[C@@H]2C[C@@H](O)CN2C(=O)[C@@H](c2cc(N3CCC(CN4CCC(O[C@H]5C[C@H](C#Cc6cn7cc(-c8ccccc8O)nc7nc6N)C5)CC4)CC3)no2)C(C)C)cc1` [Compound 28, (2S,4R)-4-hydroxy-N-[(1S)-1-[4-(4-methyl-1,3-thiazol-5-yl)phenyl]ethyl]-1-[(2R)-3-methyl-2-{3-[4-({4-[(1r,3r)-3-(2-[7-amino-2-(2-hydroxyphenyl)imidazo[1,2-a]pyrimidin-6-yl]ethynyl}cyclobutoxy]piperidin-1-yl}methyl)piperidin-1-yl]-1,2-oxazol-5-yl}butanoyl]pyrrolidine-2-carboxamide], which DC50 is on record?
The DC50 was under 2.5 nM.

What about the Dmax of the same compound?
Its Dmax is over 75%.

For `Cc1cnn(C)c1-c1ccc([C@H](C)NC(=O)[C@@H]2C[C@@H](O)CN2C(=O)[C@@H](c2cc(N3CCC(CN4CCC(O[C@H]5C[C@H](C#Cc6cn7cc(-c8ccccc8O)nc7nc6N)C5)CC4)CC3)no2)C(C)C)cc1` [Compound 40, (2S,4R)-N-[(1S)-1-[4-(1,4-dimethyl-1H-pyrazol-5-yl)phenyl]ethyl]-4-hydroxy-1-[(2R)-3-methyl-2-{3-[4-({4-[(1r,3r)-3-{2-[7-amino-2-(2-hydroxyphenyl)imidazo[1,2-a]pyrimidin-6-yl]ethynyl}cyclobutoxy]piperidin-1-yl}methyl)piperidin-1-yl]-1,2-oxazol-5-yl}butanoyl]pyrrolidine-2-carboxamide], which DC50 is on record?
Its DC50 is 2.5 to 10 nM.

And the Dmax?
Its Dmax is over 75%.

Which results are given for `Cc1ncsc1-c1ccc([C@H](C)NC(=O)[C@@H]2C[C@@H](O)CN2C(=O)[C@@H](c2cc(N3CCC(CN4CCC(O[C@H]5C[C@H](n6ccnc6CN6C7CCC6CN(c6cc(-c8ccccc8O)nnc6N)C7)C5)CC4)CC3)no2)C(C)C)cc1` [Compound 8, (2S,4R)-4-hydroxy-N-[(1S)-1-[4-(4-methyl-1,3-thiazol-5-yl)phenyl]ethyl]-1-[(2R)-3-methyl-2-{3-[4-({4-[(1r,3r)-3-[2-({3-[3-amino-6-(2-hydroxyphenyl)pyridazin-4-yl]-3,8-diazabicyclo[3.2.1]octan-8-yl}methyl)-1H-imidazol-1-yl]cyclobutoxy]piperidin-1-yl}methyl)piperidin-1-yl]-1,2-oxazol-5-yl}butanoyl]pyrrolidine-2-carboxamide]?
DC50: < 2.5 nM; Dmax: > 75%

For `CC(C)[C@@H](C(=O)N1C[C@H](O)C[C@H]1C(=O)N[C@@H](C)c1ccc(C#N)cc1)c1cc(OCCN2CCC(O[C@H]3C[C@@H](Oc4cc(N5CCN(c6cc(-c7ccccc7O)nnc6N)CC56COC6)ccn4)C3)CC2)no1` [Compound 24, (2S,4R)-N-[(1S)-1-(4-cyanophenyl)ethyl]-4-hydroxy-1-[(2R)-3-methyl-2-[3-(2-{4-[(1r,3r)-3-[(4-{8-[3-amino-6-(2-hydroxyphenyl)pyridazin-4-yl]-2-oxa-5,8-diazaspiro[3.5]nonan-5-yl}pyridin-2-yl)oxy]cyclobutoxy]piperidin-1-yl}ethoxy)-1,2-oxazol-5-yl]butanoyl]pyrrolidine-2-carboxamide], which DC50 is on record?
The DC50 was under 2.5 nM.

And the Dmax?
The Dmax was over 75%.

How did the DC50 turn out when `CC(C)[C@@H](C(=O)N1C[C@H](O)C[C@H]1C(=O)N[C@@H](C)c1ccc(-c2ccnn2C)cc1)c1cc(N2CCC(CN3CCC(O[C@H]4C[C@H](Cn5cc(-c6cn7cc(-c8ccccc8O)nc7nc6N)cn5)C4)CC3)CC2)no1` [Compound 42, (2S,4R)-4-hydroxy-N-[(1S)-1-[4-(1-methyl-1H-pyrazol-5-yl)phenyl]ethyl]-1-[(2R)-3-methyl-2-{3-[4-({4-[(1r,3r)-3-({4-[7-amino-2-(2-hydroxyphenyl)imidazo[1,2-a]pyrimidin-6-yl]-1H-pyrazol-1-yl}methyl)cyclobutoxy]piperidin-1-yl}methyl)piperidin-1-yl]-1,2-oxazol-5-yl}butanoyl]pyrrolidine-2-carboxamide] was run?
Its DC50 is under 2.5 nM.

What about the Dmax of the same compound?
Its Dmax is over 75%.
